Where a name gives a salt, the structure may show the parent alone. Read-outs that look alike come from different tables or passages of the source.
Experiments:
IKK2 = target: T1, IKK2 (Homo sapiens, UniProt O14920); test: IKKβ Resin Enzyme Assay (IKK2 resin); assay type: biochemical
T1 construct: made in house; host or cells: insect cells (baculovirus, pFastBac; SF9)
T1 sequence (O14920 1-756): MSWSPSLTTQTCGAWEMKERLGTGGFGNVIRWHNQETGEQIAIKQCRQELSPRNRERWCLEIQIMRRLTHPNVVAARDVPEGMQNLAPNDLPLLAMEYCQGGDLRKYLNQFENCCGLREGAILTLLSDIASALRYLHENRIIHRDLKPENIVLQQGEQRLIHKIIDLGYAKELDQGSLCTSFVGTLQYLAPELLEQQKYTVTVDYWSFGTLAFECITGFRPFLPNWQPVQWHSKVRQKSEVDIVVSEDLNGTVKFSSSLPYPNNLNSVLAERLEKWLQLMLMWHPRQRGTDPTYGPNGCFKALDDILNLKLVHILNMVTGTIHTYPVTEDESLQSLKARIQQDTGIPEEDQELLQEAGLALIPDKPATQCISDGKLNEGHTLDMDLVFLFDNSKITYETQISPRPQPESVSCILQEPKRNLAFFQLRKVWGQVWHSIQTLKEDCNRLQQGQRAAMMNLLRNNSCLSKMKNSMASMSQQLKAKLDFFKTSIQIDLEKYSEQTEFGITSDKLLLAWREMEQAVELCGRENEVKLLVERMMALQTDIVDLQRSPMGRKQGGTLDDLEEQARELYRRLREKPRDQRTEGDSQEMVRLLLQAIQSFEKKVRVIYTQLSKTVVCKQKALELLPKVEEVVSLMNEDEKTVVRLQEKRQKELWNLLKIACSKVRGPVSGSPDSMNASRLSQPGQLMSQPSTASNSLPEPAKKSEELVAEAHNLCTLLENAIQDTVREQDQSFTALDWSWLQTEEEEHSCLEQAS
In short: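 Enzyme: human IKK2 with a C-terminal FLAG tag, baculovirus-expressed, purified as homodimer on anti-FLAG resin. It phosphorylates a biotinylated IκBα peptide with 1 μM ATP plus [γ-33P]ATP in 25 mM Hepes pH 7.6, Mg/Mn, for 30 min at 25° C. Incorporation is counted by scintillation after anion-exchange resin stop.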

[1] = Table 7, read-out: IKK2 Resin IC50
[2] = Table 5, read-out: IKK2 Resin Avg. IC50

Compound `Cc1cc(Cl)ncc1C(=O)Nc1ccc2c(c1)-c1c(c(C(N)=O)nn1-c1ccc(F)cc1)CC2` [Example 246, 8-{[(6-chloro-4-methylpyridin-3-yl)carbonyl]amino}-1-(4-fluorophenyl)-4,5-dihydro-1H-benzo[g]indazole-3-carboxamide] has an IC50 (IKK2; [1]) of at most 1 µM and a melting point of 280 to 284 °C.
In the case of `CN1CCN(c2ccc(Cl)c(C(=O)Nc3ccc4c(c3)-c3c(c(C(N)=O)nn3-c3ccc5c(c3)OCO5)CC4)n2)CC1` (as salt: salt) [Example 217, 1-(1,3-benzodioxol-5-yl)-8-({[3-chloro-6-(4-methylpiperazin-1-yl)pyridin-2-yl]carbonyl}amino)-4,5-dihydro-1H-benzo[g]indazole-3-carboxamide], the melting point is reported as 264 to 266 °C (dec.).
In the case of `COc1ccc(CNc2ncccc2C(=O)Nc2ccc3c(c2)-c2c(c(C(N)=O)nn2-c2ccc4c(c2)OCO4)CC3)cc1` [Example 209, 1-(1,3-benzodioxol-5-yl)-8-[({2-[(4-methoxybenzyl)amino]pyridin-3-yl}carbonyl)amino]-4,5-dihydro-1H-benzo[g]indazole-3-carboxamide], the melting point is reported as 181 to 182 °C.
Compound `NC(=O)c1nn(-c2ccc3c(c2)OCO3)c2c1CCc1ccc(NC(=O)c3cccnc3N)cc1-2` [Example 210, 8-{[(2-aminopyridin-3-yl)carbonyl]amino}-1-(1,3-benzodioxol-5-yl)-4,5-dihydro-1H-benzo[g]indazole-3-carboxamide] has a melting point of 265 to 267 °C.
`NC(=O)c1nn(-c2ccc3c(c2)OCO3)c2c1CCc1ccc(NC(=O)c3cccnc3Cl)cc1-2` [Example 161, 1-(1,3-benzodioxol-5-yl)-8-{[(2-chloropyridin-3-yl)carbonyl]amino}-4,5-dihydro-1H-benzo[g]indazole-3-carboxamide] gave an IC50 (IKK2; Table 4, read-out: IKK2 Resin IC50) of at most 1 µM and a melting point of 165 to 166 °C.
`CN1CCN(c2cc(C(=O)Nc3ccc4c(c3)-c3c(c(C(N)=O)nn3-c3ccc(F)cc3)CC4)ccn2)CC1` [Example 251, 1-(4-fluorophenyl)-8-{[2-(4-methylpiperazin-1-yl)isonicotinoyl]amino}-4,5-dihydro-1H-benzo[g]indazole-3-carboxamide] showed an IC50 (IKK2; [1]) of at most 1 µM and a melting point of 277 to 279 °C.
Compound `CN1CCN(c2ccc(Cl)c(C(=O)Nc3ccc4c(c3)-c3c(c(C(N)=O)nn3-c3ccc(F)cc3)CC4)n2)CC1` (as salt: salt) [Example 256, 8-({[3-chloro-6-(4-methylpiperazin-1-yl)pyridin-2-yl]carbonyl}amino)-1-(4-fluorophenyl)-4,5-dihydro-1H-benzo[g]indazole-3-carboxamide] has a melting point of 218 to 220 °C.
In the case of `CNc1ccc(Cl)c(C(=O)Nc2ccc3c(c2)-c2c(c(C(N)=O)nn2-c2ccc4c(c2)OCO4)CC3)n1` [Example 220, 1-(1,3-benzodioxol-5-yl)-8-({[3-chloro-6-(methylamino)pyridin-2-yl]carbonyl}amino)-4,5-dihydro-1H-benzo[g]indazole-3-carboxamide], the IC50 (IKK2; [2]) is reported as at most 1 µM and the melting point is reported as 269 to 270 °C (dec.).
Compound `NC(=O)c1nn(-c2ccc(F)cc2)c2c1CCc1ccc(NC(=O)c3cc(N4CCOCC4)ncc3Cl)cc1-2` [Example 249, 8-[(5-chloro-2-morpholin-4-ylisonicotinoyl)amino]-1-(4-fluorophenyl)-4,5-dihydro-1H-benzo[g]indazole-3-carboxamide] has an IC50 (IKK2; [1]) of at most 1 µM and a melting point of 309 to 313 °C.
In the case of `CNc1ncccc1C(=O)Nc1ccc2c(c1)-c1c(c(C(N)=O)nn1-c1ccc3c(c1)OCO3)CC2` [Example 207, 1-(1,3-benzodioxol-5-yl)-8-({[2-(methylamino)pyridin-3-yl]carbonyl}amino)-4,5-dihydro-1H-benzo[g]indazole-3-carboxamide], the IC50 (IKK2; [2]) is reported as at most 1 µM and the melting point is reported as 273 to 275 °C.
In the case of `NC(=O)c1nn(-c2ccc3c(c2)OCO3)c2c1CCc1ccc(NC(=O)c3nc(N4CCOCC4)ccc3Cl)cc1-2` [Example 219, 1-(1,3-benzodioxol-5-yl)-8-{[(3-chloro-6-morpholin-4-ylpyridin-2-yl)carbonyl]amino}-4,5-dihydro-1H-benzo[g]indazole-3-carboxamide], the IC50 (IKK2; [2]) is reported as at most 1 µM and the melting point is reported as 260 to 262 °C (dec.).
With `NC(=O)c1nn(-c2ccc3c(c2)OCO3)c2c1CCc1ccc(NC(=O)c3cc(Cl)ncc3Cl)cc1-2` [Example 211, 1-(1,3-benzodioxol-5-yl)-8-[(2,5-dichloroisonicotinoyl)amino]-4,5-dihydro-1H-benzo[g]indazole-3-carboxamide] the melting point was 292 to 293 °C.
For `Cc1cc(N2CCOCC2)ncc1C(=O)Nc1ccc2c(c1)-c1c(c(C(N)=O)nn1-c1ccc(F)cc1)CC2` [Example 247, 1-(4-fluorophenyl)-8-{[(4-methyl-6-morpholin-4-ylpyridin-3-yl)carbonyl]amino}-4,5-dihydro-1H-benzo[g]indazole-3-carboxamide], the IC50 (IKK2; [1]) was at most 1 µM and the melting point was 301 °C (dec.).
In the case of `NC(=O)c1nn(-c2ccc3c(c2)OCO3)c2c1CCc1ccc(NC(=O)c3cc(N4CCOCC4)ncc3Cl)cc1-2` [Example 212, 1-(1,3-benzodioxol-5-yl)-8-[(5-chloro-2-morpholin-4-ylisonicotinoyl)amino]-4,5-dihydro-1H-benzo[g]indazole-3-carboxamide], the IC50 (IKK2; [2]) is reported as at most 1 µM and the melting point is reported as 269 to 271 °C.
For `NC(=O)c1nn(-c2ccc(F)cc2)c2c1CCc1ccc(NC(=O)c3cccnc3N3CCNCC3)cc1-2` [Example 245, 1-(4-fluorophenyl)-8-{[(2-piperazin-1-ylpyridin-3-yl)carbonyl]amino}-4,5-dihydro-1H-benzo[g]indazole-3-carboxamide], the IC50 (IKK2; [1]) was at most 1 µM and the melting point was 156 to 157 °C.
For `CN1CCN(c2cc(C(=O)Nc3ccc4c(c3)-c3c(c(C(N)=O)nn3-c3ccc5c(c3)OCO5)CC4)c(Cl)cn2)CC1` [Example 214, 1-(1,3-benzodioxol-5-yl)-8-{[5-chloro-2-(4-methylpiperazin-1-yl)isonicotinoyl]amino}-4,5-dihydro-1H-benzo[g]indazole-3-carboxamide], the melting point was 305 to 307 °C.
With `NC(=O)c1nn(-c2ccc3c(c2)OCO3)c2c1CCc1ccc(NC(=O)c3nc(Cl)ccc3Cl)cc1-2` [Example 216, 1-(1,3-benzodioxol-5-yl)-8-{[(3,6-dichloropyridin-2-yl)carbonyl]amino}-4,5-dihydro-1H-benzo[g]indazole-3-carboxamide] the melting point was 263 to 265 °C.
`NC(=O)c1nn(-c2ccc3c(c2)OCO3)c2c1CCc1ccc(NC(=O)c3cccnc3NCCO)cc1-2` [Example 208, 1-(1,3-benzodioxol-5-yl)-8-[({2-[(2-hydroxyethyl)amino]pyridin-3-yl}carbonyl)amino]-4,5-dihydro-1H-benzo[g]indazole-3-carboxamide] showed an IC50 (IKK2; [2]) of at most 1 µM and a melting point of 250 to 253 °C.
Work on `NC(=O)c1nn(-c2ccc(F)cc2)c2c1CCc1ccc(NC(=O)c3nc(N4CCOCC4)ccc3Cl)cc1-2` [Example 255, 8-{[(3-chloro-6-morpholin-4-ylpyridin-2-yl)carbonyl]amino}-1-(4-fluorophenyl)-4,5-dihydro-1H-benzo[g]indazole-3-carboxamide] yielded an IC50 (IKK2; [1]) of at most 1 µM and a melting point of 252 to 254 °C.
In the case of `CS(=O)(=O)c1ccc(-n2nc(C(N)=O)c3c2-c2cc(NC(=O)c4ccccc4Cl)ccc2CC3)cn1` [Example 368, 8-[(2-chlorobenzoyl)amino]-1-[6-(methylsulfonyl)pyridin-3-yl]-4,5-dihydro-1H-benzo[g]indazole-3-carboxamide], the IC50 (IKK2; read-out: IKK-2 resin IC50) is reported as at most 1 µM.

Source: patent US7186743B2, “Substituted pyrazolyl compounds for the treatment of inflammation” (Pharmacia Corporation, priority 2001, dated 2007)
